Target: T1, MHV E protein (Murine hepatitis virus strain A59, UniProt P0C2R0)
T1 sequence (P0C2R0 1-83): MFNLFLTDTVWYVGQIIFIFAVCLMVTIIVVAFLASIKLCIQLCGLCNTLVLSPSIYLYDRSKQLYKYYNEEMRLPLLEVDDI
Experiment: planar lipid bilayer current recording, dose titration
Format: biochemical

N=C(N)NC(=O)c1nc(Cl)c(N2CCCCCC2)nc1N [HMA, Hexamethylene amiloride]
EC50: 10.2 µM

From PMC7111787 (Virology, 2006)
